Active and inactive are the calls of the source.
Experiments:
Paired box protein Pax-8 = Paired box protein Pax-8 (Homo sapiens, UniProt Q06710); assay: PAX8 transcriptional activity inhibition in RMG-I – RMG-I cells, luciferase, cherry-pick, dose response (AID 687027); format: functional, cell-based;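 note: luciferase reporter driven by Pax8 target thyroperoxidase promoter measured by SteadyGlo luminescence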
[1] = target: T1, Heat shock factor protein 1 (Mus musculus, UniProt P38532); assay: decrease of HSF1-responsive luciferase luminescence – cell-based, NIH3T3, dose retest, confirmation (AID 2382); format: functional;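 note: NIH3T3 fibroblasts with HSF1-driven luciferase reporter stressed by proteasome inhibitor MG132; luminescence from HSF1-driven luciferase expression after 8 hours of MG132 stress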
T1 sequence (P38532 whole entry): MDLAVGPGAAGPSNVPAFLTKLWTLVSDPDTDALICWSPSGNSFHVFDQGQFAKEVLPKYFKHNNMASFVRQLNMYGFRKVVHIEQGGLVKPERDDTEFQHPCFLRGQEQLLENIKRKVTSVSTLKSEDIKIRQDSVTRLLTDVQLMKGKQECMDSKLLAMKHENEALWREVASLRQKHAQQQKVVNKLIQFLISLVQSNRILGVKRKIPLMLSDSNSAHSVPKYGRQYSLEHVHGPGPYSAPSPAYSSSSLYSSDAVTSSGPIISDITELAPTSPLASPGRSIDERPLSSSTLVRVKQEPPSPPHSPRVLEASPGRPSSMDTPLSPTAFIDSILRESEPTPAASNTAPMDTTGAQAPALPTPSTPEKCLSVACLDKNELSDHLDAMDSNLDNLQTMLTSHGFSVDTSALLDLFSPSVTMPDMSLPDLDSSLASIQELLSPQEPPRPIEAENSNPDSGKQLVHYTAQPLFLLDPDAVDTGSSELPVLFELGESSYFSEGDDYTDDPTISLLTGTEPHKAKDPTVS

[2] = target: T2, Zinc finger protein mex-5 (Caenorhabditis elegans, UniProt Q9XUB2); assay: potency of MEX-5 RNA-binding blockers – biochemical, C. elegans, fluorescence polarization, dose response (AID 1960)
T2 sequence (Q9XUB2 whole entry): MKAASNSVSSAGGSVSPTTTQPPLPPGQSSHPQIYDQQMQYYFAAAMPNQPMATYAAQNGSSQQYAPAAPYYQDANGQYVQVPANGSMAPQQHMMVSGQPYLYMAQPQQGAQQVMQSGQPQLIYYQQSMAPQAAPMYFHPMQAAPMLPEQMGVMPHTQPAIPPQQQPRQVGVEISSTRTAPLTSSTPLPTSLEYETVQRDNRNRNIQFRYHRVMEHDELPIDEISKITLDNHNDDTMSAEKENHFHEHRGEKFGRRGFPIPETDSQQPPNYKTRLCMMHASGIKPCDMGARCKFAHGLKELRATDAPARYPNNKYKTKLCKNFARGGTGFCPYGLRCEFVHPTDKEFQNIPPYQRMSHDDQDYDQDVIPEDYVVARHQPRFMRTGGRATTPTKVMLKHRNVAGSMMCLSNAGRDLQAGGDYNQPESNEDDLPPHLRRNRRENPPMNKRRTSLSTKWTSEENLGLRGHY

[3] = target: T3, RNA-binding protein pos-1 (Caenorhabditis elegans, UniProt G5EF15); assay: disruptors of C. elegans POS-1 RNA interaction – biochemical, fluorescence polarization, dose response (AID 1964);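 note: purified POS-1 fused to maltose binding protein made in E. coli; potency of compounds blocking POS-1 binding to fluorescent RNA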
T3 sequence (G5EF15 whole entry): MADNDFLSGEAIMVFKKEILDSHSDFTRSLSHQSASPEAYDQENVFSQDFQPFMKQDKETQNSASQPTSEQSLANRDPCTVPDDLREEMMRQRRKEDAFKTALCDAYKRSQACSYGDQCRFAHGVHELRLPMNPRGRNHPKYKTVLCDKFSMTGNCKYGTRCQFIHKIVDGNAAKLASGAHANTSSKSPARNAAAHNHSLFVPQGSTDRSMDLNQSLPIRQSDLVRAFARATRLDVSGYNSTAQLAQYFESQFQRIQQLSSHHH

Cytochrome P450 2C9 = Cytochrome P450 2C9 (Homo sapiens, UniProt P11712)
Cytochrome P450 2C19 = Cytochrome P450 2C19 (Homo sapiens, UniProt P33261); assay: Cytochrome panel assay with activity outcomes. Panel member name: p450-cyp2c19 Compounds with AC50 equal or less than 10 uM are considered active; format: functional; settings: read-out: AC50
Cytochrome P450 1A2 = target: T4, Cytochrome P450 1A2 (Homo sapiens, UniProt P05177);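 note: PubChem cytochrome P450 panel assay, CYP1A2 panel member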
T4 sequence (P05177 whole entry): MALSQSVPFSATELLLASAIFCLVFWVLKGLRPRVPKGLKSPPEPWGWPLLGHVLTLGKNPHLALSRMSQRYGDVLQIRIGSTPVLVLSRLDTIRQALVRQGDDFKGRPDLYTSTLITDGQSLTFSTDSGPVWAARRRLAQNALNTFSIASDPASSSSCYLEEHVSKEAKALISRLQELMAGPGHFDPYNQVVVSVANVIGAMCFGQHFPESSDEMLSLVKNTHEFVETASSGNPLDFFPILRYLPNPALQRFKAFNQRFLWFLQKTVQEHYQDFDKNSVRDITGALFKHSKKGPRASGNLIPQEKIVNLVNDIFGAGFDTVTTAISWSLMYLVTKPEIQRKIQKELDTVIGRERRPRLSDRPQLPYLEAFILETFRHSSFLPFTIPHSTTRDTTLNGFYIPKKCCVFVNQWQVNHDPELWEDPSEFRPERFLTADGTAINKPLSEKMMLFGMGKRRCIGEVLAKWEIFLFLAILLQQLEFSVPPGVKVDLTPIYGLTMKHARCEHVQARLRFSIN

H9c2 = assay: cells; format: functional, cell-based; settings: Rattus norvegicus, H9c2, Myocardium;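 note: confirmatory concentration-response retest of ultra-high-throughput screening hits for modulation of myocardial damage; cell death induced by hydrogen peroxide oxidative stress; compound pretreatment for 60 min then peroxide exposure for 2 h; potency is for protecting the cells against peroxide damage rather than for killing them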
Cytochrome P450 2D6 = Cytochrome P450 2D6 (Homo sapiens, UniProt P10635);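 note: CYP2D6 member of a cytochrome P450 panel assay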
Cytochrome P450 2D6, sequence (P10635 whole entry): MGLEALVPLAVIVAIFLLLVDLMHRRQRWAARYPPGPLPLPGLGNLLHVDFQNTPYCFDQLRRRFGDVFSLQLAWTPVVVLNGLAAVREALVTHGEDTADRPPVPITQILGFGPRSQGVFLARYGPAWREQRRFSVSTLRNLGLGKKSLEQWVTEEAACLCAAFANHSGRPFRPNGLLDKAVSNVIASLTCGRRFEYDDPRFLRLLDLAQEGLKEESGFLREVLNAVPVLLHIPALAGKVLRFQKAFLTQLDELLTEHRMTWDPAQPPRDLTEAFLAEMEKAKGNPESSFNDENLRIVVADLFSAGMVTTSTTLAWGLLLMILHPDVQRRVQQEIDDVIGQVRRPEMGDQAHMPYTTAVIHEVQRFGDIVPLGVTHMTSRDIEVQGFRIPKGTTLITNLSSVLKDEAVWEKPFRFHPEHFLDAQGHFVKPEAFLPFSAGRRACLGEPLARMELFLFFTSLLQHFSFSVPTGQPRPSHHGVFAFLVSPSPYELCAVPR

Paired box protein Pax-8, sequence (Q06710 whole entry): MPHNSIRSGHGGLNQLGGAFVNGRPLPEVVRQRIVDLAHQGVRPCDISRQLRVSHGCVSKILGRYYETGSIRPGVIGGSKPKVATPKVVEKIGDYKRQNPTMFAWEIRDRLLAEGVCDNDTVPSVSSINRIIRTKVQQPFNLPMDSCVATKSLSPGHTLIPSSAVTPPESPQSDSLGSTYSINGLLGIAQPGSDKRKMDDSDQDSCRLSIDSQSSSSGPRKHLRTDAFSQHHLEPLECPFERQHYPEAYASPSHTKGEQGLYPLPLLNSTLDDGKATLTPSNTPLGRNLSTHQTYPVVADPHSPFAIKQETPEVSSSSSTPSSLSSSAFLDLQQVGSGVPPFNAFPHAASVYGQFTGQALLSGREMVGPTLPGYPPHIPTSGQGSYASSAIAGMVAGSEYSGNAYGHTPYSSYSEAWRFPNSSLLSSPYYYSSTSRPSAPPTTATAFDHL
Cytochrome P450 2C19, sequence (P33261 whole entry): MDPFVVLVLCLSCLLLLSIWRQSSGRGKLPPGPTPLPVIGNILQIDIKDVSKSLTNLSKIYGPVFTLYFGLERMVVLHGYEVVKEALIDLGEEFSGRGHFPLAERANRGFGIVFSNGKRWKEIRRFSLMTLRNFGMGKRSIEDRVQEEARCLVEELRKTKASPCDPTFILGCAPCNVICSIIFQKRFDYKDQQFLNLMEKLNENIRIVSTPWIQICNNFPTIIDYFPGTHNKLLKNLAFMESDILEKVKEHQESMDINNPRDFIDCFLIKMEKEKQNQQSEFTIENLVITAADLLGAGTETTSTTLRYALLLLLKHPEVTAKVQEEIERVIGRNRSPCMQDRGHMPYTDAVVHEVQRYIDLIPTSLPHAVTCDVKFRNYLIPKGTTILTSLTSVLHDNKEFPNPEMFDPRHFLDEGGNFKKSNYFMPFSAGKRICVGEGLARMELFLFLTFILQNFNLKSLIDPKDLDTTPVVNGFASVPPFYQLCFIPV
Cytochrome P450 2C9, sequence (P11712 whole entry): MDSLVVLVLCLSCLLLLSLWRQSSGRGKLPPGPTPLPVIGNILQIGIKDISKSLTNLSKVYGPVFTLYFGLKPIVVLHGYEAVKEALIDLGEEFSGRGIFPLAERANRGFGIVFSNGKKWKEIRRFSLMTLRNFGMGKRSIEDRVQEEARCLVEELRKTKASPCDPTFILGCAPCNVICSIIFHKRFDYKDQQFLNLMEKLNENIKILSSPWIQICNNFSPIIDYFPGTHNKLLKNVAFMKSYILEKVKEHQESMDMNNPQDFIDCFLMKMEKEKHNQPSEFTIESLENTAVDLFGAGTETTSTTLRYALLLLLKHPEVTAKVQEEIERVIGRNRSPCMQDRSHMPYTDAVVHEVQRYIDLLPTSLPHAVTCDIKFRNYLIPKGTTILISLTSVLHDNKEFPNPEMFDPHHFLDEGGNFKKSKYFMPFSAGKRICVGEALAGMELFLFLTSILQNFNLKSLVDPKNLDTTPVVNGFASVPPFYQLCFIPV

Structure (SMILES): COc1cccc(-c2cnc3c(NC=O)cc(-c4ccc(OC)cc4OC)cn23)c1
- AC50 (Paired box protein Pax-8): 2.93 µM (active)

Structure (SMILES): CCn1c(O)cc(=O)nc1SCC(=O)N1CCOCC1
- EC50 [1]: > 195 µM (not active)

Structure (SMILES): Cc1ccc(-c2ccccc2)n1-c1cccc(C(=O)O)c1
- EC50 [2]: > 300 µM (not active)
- EC50 [3]: 109 µM (active)

Structure (SMILES): C[C@H]1CCCCO[C@H](CN(C)S(=O)(=O)c2ccc(Cl)cc2)[C@@H](C)CN([C@@H](C)CO)C(=O)c2cc(NS(=O)(=O)c3ccc(Cl)cc3)ccc2O1
- AC50 (Paired box protein Pax-8): 5.52 µM (active)

Structure (SMILES): CC(C)c1ccc(C2C(C#N)=C(N)N3C(=C2C#N)Sc2ccccc23)cc1 (stereo not given)
- AC50 (Cytochrome P450 2C9): 10 µM (inconclusive)
- AC50 (Cytochrome P450 2C19): 14.1 µM (inconclusive)
- EC50 [2]: 61.3 µM (active)
- AC50 (Cytochrome P450 1A2): 25.1 µM (inconclusive)
- EC50 [3]: 33 µM (inconclusive)

Structure (SMILES): COc1c(C)cc(Br)cc1C(=O)Nc1cccc(-c2nc3ncccc3o2)c1
- IC50 (H9c2): > 79 µM (inactive)

Structure (SMILES): O=C(NCc1ccccc1C(F)(F)F)C12CN(Cc3ccccc3)CC1C(c1ccc([N+](=O)[O-])cc1)=NO2 (stereo not given)
- EC50 [1]: > 195 µM (not active)

Structure (SMILES): N#CC(c1nc2ccccc2nc1OCCO)S(=O)(=O)c1ccccc1 (stereo not given)
- EC50 [2]: 142 µM (inconclusive)
- EC50 [3]: > 300 µM (not active)

Structure (SMILES): CCOC(=O)[C@@]1(C#N)C(c2ccc(Cl)c(Cl)c2)[C@H](C(N)=O)N2C=C(C(C)=O)C=C[C@H]21 (stereo not given in full)
- EC50 [2]: 24 µM (inconclusive)
- EC50 [3]: 55.7 µM (inconclusive)

Structure (SMILES): Brc1cc2c(cc1/C=N/Nc1nc(N3CCCC3)nc(N3CCOCC3)n1)OCO2
- AC50 (Cytochrome P450 2D6): 28.2 µM (inconclusive)
- AC50 (Cytochrome P450 1A2): 15.8 µM (inconclusive)
- IC50 (H9c2): > 79 µM (inactive)

Structure (SMILES): Cc1ccc(CO/N=C/c2c(O)cc(C)oc2=O)cc1
- EC50 [1]: > 195 µM (not active)

Structure (SMILES): Cc1ccc(-c2nnc(O)c3ccccc23)cc1S(=O)(=O)NCCO
- IC50 (H9c2): > 79 µM (inactive)

Structure (SMILES): COc1ccc(CNC(=O)COC(=O)c2cc(-c3ccc(Cl)s3)nc3ccccc23)cc1
- EC50 [2]: 58.6 µM (active)
- EC50 [3]: 92.1 µM (active)

Structure (SMILES): O=c1c2ccccc2nc2c3ccccc3c(NCCO)nn12
- IC50 (H9c2): 20.2 µM (active)

Structure (SMILES): O=[N+]([O-])c1ccccc1S(=O)(=O)n1nnc2ccccc21
- EC50 [2]: > 300 µM (not active)
- EC50 [3]: > 300 µM (not active)

Structure (SMILES): COc1cc(C2C3=C(COC3=O)OC(C)(C)Oc3cc4c(cc32)OCO4)cc(OC)c1OC (stereo not given)
- AC50 (Paired box protein Pax-8): 1.78 µM (active)

Structure (SMILES): CCN(Cc1cc(=O)oc2cc(C)ccc12)c1ccccc1
- EC50 [1]: > 195 µM (not active)

Structure (SMILES): Nc1cc2nc(O)c3ccccc3c2cc1Br
- IC50 (H9c2): > 79 µM (inactive)

Structure (SMILES): CC1CCCN(C(=O)C2CCN(S(=O)(=O)c3ccc4c(c3)CC(C)N4C(=O)C3CC3)CC2)C1 (stereo not given)
- EC50 [1]: > 195 µM (not active)

Structure (SMILES): NC(=O)c1oc2ccccc2c1NC(=O)c1ccco1
- IC50 (H9c2): 17 µM (active)

Structure (SMILES): COC(=O)c1ccc(C)c(-n2c(C)cc(C=O)c2C)c1
- EC50 [2]: > 300 µM (not active)
- EC50 [3]: > 300 µM (not active)

Structure (SMILES): COC/C=C/C1=CC2=CC(=O)C(C)(OC(=O)c3cccs3)C(=O)C2=CO1 (stereo not given)
- EC50 [2]: 51.8 µM (active)
- EC50 [3]: > 300 µM (not active)

Reference: ChEMBL document CHEMBL1201862, “PubChem BioAssay data set” (2004)
